From paper PMC6261661 (ACS chemical neuroscience, 2018)
“And” between values parts separate entries of the source, which are not always exact repeats. Identical values can stand only once. “Also recorded” adds a separate entry of the source. Like-named read-outs stand apart in the source and are kept apart here. Square brackets hold non-standard residues; d marks the D form. Peptide text beside a SMILES is read from it. * marks the point of attachment. Bip = N[C@@H](Cc1ccc(-c2ccccc2)cc1)C(=O)O; dBip = N[C@H](Cc1ccc(-c2ccccc2)cc1)C(=O)O; dPhe(4-I) = N[C@H](Cc1ccc(I)cc1)C(=O)O; Bta = N[C@@H](Cc1csc2ccccc12)C(=O)O; 3Pal = N[C@@H](Cc1cccnc1)C(=O)O; 4Pal = N[C@@H](Cc1ccncc1)C(=O)O; 2Thi = N[C@@H](Cc1cccs1)C(=O)O; Octanoyl = CCCCCCCC(=O)*

Assays:
[1] = target: T1, mMC5R (Mus musculus, UniProt P41149); experiment: CRE/β-galactosidase reporter gene bioassay, agonist activity at mMC5R; format: cell-based; settings: for mMC5R Fold Diff.: fold difference in EC50 vs peptide 1, negative prefix = more potent than 1; for mMC5R pharmacology in words: comparisons are to reference peptide 1; for mMC5R fold less potent than peptide 1: less potent than 1
[2] = target: mMC1R (Mus musculus, UniProt Q01727); experiment: CRE/β-galactosidase reporter gene bioassay, agonist activity at mMC1R; format: cell-based; settings: for mMC1R Fold Diff: fold difference in EC50 vs peptide 1, negative prefix = more potent than 1; for EC50: mMC1R EC50, agonist, HEK-293 cells stably expressing receptor, ±SEM; for mMC1R pharmacology in words: comparisons are to reference peptide 1
[3] = target: T2, mMC4R (Mus musculus, UniProt P56450); experiment: Antagonist Schild analysis against agonist MTII at mMC4R; format: cell-based; settings: for mMC4R pharmacology class printed in Fold Diff. column (Ant, SA): Ant = antagonist, SA = some stimulatory activity at 100 µM
[4] = target: T3, mMC3R (Mus musculus, UniProt P33033); experiment: Antagonist Schild analysis against agonist MTII at mMC3R; format: cell-based; settings: for mMC3R pharmacology class printed in Fold Diff column (Ant, SA): Ant = antagonist, SA = some stimulatory activity at 100 µM
[5] = target: T1, mMC5R; settings: read-out: mMC5R EC50; reference peptide from the literature; ref [32]; cited from earlier work
[6] = target: T2, mMC4R; experiment: CRE/β-galactosidase reporter gene bioassay, agonist activity at mMC4R; format: cell-based; settings: ligand at 100 μM, compared to maximal response generated by α-MSH
[7] = target: T3, mMC3R; experiment: cell-based; format: cell-based
[8] = ligand at 100 μM, compared to maximal response generated by α-MSH

T2 sequence (P56450 whole entry): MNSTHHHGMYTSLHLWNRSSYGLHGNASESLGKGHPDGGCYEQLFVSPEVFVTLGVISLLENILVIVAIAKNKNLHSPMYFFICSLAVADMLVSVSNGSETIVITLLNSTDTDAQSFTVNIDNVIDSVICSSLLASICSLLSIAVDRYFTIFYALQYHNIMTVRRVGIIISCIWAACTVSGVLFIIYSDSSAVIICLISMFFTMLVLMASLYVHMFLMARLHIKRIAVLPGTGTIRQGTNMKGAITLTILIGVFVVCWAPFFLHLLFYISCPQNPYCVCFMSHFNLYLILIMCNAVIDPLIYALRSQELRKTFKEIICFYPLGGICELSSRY
T3 sequence (P33033 whole entry): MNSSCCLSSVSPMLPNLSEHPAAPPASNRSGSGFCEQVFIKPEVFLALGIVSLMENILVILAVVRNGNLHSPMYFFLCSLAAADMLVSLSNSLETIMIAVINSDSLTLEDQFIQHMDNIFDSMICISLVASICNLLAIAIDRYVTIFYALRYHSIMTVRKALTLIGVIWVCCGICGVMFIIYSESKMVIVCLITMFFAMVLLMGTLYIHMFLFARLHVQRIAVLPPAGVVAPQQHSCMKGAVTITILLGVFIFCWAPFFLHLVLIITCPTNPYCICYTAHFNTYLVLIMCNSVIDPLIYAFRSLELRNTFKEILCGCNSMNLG
Chain of mMC1R (Q01727 whole entry): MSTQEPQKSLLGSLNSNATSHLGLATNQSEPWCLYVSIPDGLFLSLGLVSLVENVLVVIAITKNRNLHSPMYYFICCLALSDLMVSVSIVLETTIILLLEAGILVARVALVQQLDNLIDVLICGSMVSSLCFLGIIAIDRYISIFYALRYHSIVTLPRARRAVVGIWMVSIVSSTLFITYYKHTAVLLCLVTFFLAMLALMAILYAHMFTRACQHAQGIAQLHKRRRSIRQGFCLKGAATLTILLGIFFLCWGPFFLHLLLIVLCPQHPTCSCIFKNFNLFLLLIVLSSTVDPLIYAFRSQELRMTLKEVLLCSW
T1 sequence (P41149 whole entry): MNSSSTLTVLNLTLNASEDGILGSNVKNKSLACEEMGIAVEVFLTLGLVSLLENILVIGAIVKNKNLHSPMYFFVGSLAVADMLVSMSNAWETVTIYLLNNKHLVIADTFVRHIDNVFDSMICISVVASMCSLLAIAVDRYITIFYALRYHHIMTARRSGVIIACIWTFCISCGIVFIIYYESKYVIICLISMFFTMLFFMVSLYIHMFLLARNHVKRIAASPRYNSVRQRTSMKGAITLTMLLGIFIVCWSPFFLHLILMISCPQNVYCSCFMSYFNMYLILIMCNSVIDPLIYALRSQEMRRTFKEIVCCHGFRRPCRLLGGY

Molecule | EC50 [1] [nM] | mMC5R Fold Diff. [1] | mMC1R Fold Diff [2] | EC50 [2] | Kb [3] [nM] | mMC4R pharmacology class printed in Fold Diff. column (Ant, SA) [3] | fold preference for the mMC4R versus mMC3R ([3]; antagonist) [fold] | Kb [4] [nM] | mMC3R pharmacology class printed in Fold Diff column (Ant, SA) [4] | EC50 [5] [nM] | mMC5R pharmacology in words [1] | mMC1R pharmacology in words [2] | mMC4R relative percentage of stimulation at 100 μM [6] [%] | mMC5R fold less potent than peptide 1 [1] | mMC1R fold difference in EC50, more potent than reference peptide 1 ([2]; more potent agonist than 1) [fold] | mMC3R relative percentage of stimulation at 100 μM [7, 8] [%] | mMC3R relative percentage of stimulation at 100 μM ([7]; 100000.0) [%−65%] | Ki [3] [nM]
CC(=O)N[C@@H](Cc1ccncc1)C(=O)N[C@H](Cc1ccc(I)cc1)C(=O)N[C@@H](CCCNC(=N)N)C(=O)N[C@@H](Cc1c[nH]c2ccccc12)C(N)=O [Peptide 16, Ac-4PAL-(pI)DPhe-Arg-Trp-NH2] (Ac-[4Pal][dPhe(4-I)]RW-NH2) | 610 ± 250 | 114 | 20 | 2900 ± 1500 nM | 1.26 | Ant | 66 | 79.4 | Ant | – | – | – | – | – | – | – | – | –
Ac-His-(pI)DPhe-Arg-Trp-NH2 [Peptide 45] | – | – | – | – | – | – | – | – | – | 1.6 ± 0.4 | – | – | – | – | – | – | – | –
CC(=O)N[C@@H](Cc1c[nH]cn1)C(=O)N[C@H](Cc1ccc(-c2ccccc2)cc1)C(=O)N[C@@H](CCCNC(=N)N)C(=O)N[C@@H](Cc1ccc(-c2ccccc2)cc1)C(N)=O [Peptide 33, Ac-His-DBip-Arg-Bip-NH2] (Ac-H[dBip]R[Bip]-NH2) | 31.2 ± 4.7 | 6 | −9 | 15.8 ± 6.1 nM | 158 | Ant | – | 501 | Ant | – | less potent | more potent | 30 | – | – | – | – | –
CC(=O)N[C@@H](Cc1cccnc1)C(=O)N[C@H](Cc1ccc(I)cc1)C(=O)N[C@@H](CCCNC(=N)N)C(=O)N[C@@H](Cc1c[nH]c2ccccc12)C(N)=O [Peptide 12, Ac-3PAL-(pI)DPhe-Arg-Trp-NH2] (Ac-[3Pal][dPhe(4-I)]RW-NH2) | 18000 ± 3000 | 3340 | 34 | 4800 ± 1400 nM | 5.01 | SA Ant | – | 100 | Ant | – | – | – | 35 | 3300 fold | – | – | – | –
CC(=O)N[C@@H](Cc1c[nH]cn1)C(=O)N[C@H](Cc1ccc(-c2ccccc2)cc1)C(=O)N[C@@H](CCCNC(=N)N)C(=O)N[C@H](Cc1ccc(-c2ccccc2)cc1)C(N)=O [Peptide 35, Ac-His-DBip-Arg-DBip-NH2] (Ac-H[dBip]R[dBip]-NH2) | 42 ± 7 | 8 | – | 90 ± 20 nM | 158 | SA Ant | – | 200 | Ant | – | less potent | within 3-fold experimental error | 23 | – | – | – | – | –
CCCCCCCC(=O)N[C@@H](Cc1c[nH]cn1)C(=O)N[C@H](Cc1ccccc1)C(=O)N[C@@H](CCCNC(=N)N)C(=O)N[C@H](Cc1ccc(-c2ccccc2)cc1)C(N)=O [Peptide 8, Octanoyl-His-DPhe-Arg-DBip-NH2] (Octanoyl-H[dF]R[dBip]-NH2) | 31 ± 3 | 6 | – | 180 ± 20 nM | 50.1 | Ant | – | 316 | Ant | – | decreased potencies | equipotent | – | – | – | – | – | –
CC(=O)N[C@@H](Cc1c[nH]cn1)C(=O)N[C@H](Cc1ccc(-c2ccccc2)cc1)C(=O)N[C@@H](CCCNC(=N)N)C(=O)N[C@@H](Cc1csc2ccccc12)C(N)=O [Peptide 34, Ac-His-DBip-Arg-3Bal-NH2] (Ac-H[dBip]R[Bta]-NH2) | 6.9 ± 0.2 | – | −16 | 9 nM and 8.9 nM | 20 | SA Ant | – | 316 | SA Ant | – | equipotent agonists | more potent | 65 | – | 16 | 55 | – | –
CC(=O)N[C@@H](Cc1ccccc1)C(=O)N[C@H](Cc1ccc(I)cc1)C(=O)N[C@@H](CCCNC(=N)N)C(=O)N[C@@H](Cc1c[nH]c2ccccc12)C(N)=O [Peptide 15, Ac-Phe-(pI)DPhe-Arg-Trp-NH2] (Ac-F[dPhe(4-I)]RW-NH2) | 140 ± 30 | 25 | 6 | 820 ± 320 nM | 20 | SA Ant | – | 126 | SA Ant | – | – | – | 30 | 11- to 25 fold | – | 20 | – | –
CC(=O)N[C@@H](Cc1c[nH]cn1)C(=O)N[C@H](Cc1ccc(I)cc1)C(=O)N[C@@H](CCCNC(=N)N)C(=O)N[C@@H](Cc1csc2ccccc12)C(N)=O [Peptide 30, Ac-His-(pI)DPhe-Arg-3Bal-NH2] (Ac-H[dPhe(4-I)]R[Bta]-NH2) | 3.2 ± 0.7 | – | – | 45 ± 14 nM | 10 | SA Ant | – | 39.8 | SA Ant | – | equipotent agonists; also recorded: very potent nanomolar agonist activity | – | 50 | – | – | 25 | – | –
CC(=O)N[C@@H](Cc1ccc(-c2ccccc2)cc1)C(=O)N[C@H](Cc1ccc(I)cc1)C(=O)N[C@@H](CCCNC(=N)N)C(=O)N[C@@H](Cc1c[nH]c2ccccc12)C(N)=O [Peptide 17, Ac-Bip-(pI)DPhe-Arg-Trp-NH2] (Ac-[Bip][dPhe(4-I)]RW-NH2) | 440 ± 70 | 83 | 37 | 5200 ± 1700 nM | 79.4 | Ant | – | 631 | Ant | – | – | – | – | – | – | – | – | –
CCCCCCCC(=O)N[C@@H](Cc1c[nH]cn1)C(=O)N[C@H](Cc1ccccc1)C(=O)N[C@@H](CCCNC(=N)N)C(=O)N[C@@H](Cc1ccc(-c2ccccc2)cc1)C(N)=O [Peptide 2, Octanoyl-His-DPhe-Arg-Bip-NH2] (Octanoyl-H[dF]R[Bip]-NH2) | – | 12 | – | – | – | Ant | – | – | – | – | decreased potencies | equipotent | 40 | – | – | – | 50 | –
CC(=O)N[C@@H](Cc1c[nH]cn1)C(=O)N[C@H](Cc1ccc(I)cc1)C(=O)N[C@@H](CCCNC(=N)N)C(=O)N[C@@H](Cc1ccc(-c2ccccc2)cc1)C(N)=O [Peptide 29, Ac-His-(pI)DPhe-Arg-Bip-NH2] (Ac-H[dPhe(4-I)]R[Bip]-NH2) | 12.4 ± 2 | – | – | 47 ± 9 nM | 39.8 | SA Ant | – | 200 | SA Ant | – | equipotent agonists; also recorded: very potent nanomolar agonist activity | – | 30 | – | – | 35 | – | –
CC(=O)N[C@@H](Cc1c[nH]c2ccccc12)C(=O)N[C@H](Cc1ccc(-c2ccccc2)cc1)C(=O)N[C@@H](CCCNC(=N)N)C(=O)N[C@@H](Cc1c[nH]c2ccccc12)C(N)=O [Peptide 18, Ac-Trp-DBip-Arg-Trp-NH2] (Ac-W[dBip]RW-NH2) | 1800 ± 1300 | 340 | 13 | 1800 ± 1000 nM | 100 | SA Ant | – | 200 | Ant | – | non-selective mMC1R and mMC5R micromolar agonist profile | non-selective mMC1R and mMC5R micromolar agonist profile | 45 | – | – | – | – | –
CC(=O)N[C@@H](Cc1cccs1)C(=O)N[C@H](Cc1ccc(I)cc1)C(=O)N[C@@H](CCCNC(=N)N)C(=O)N[C@@H](Cc1c[nH]c2ccccc12)C(N)=O [Peptide 14, Ac-2Thi-(pI)DPhe-Arg-Trp-NH2] (Ac-[2Thi][dPhe(4-I)]RW-NH2) | 71 ± 30 | 14 | – | 490 ± 150 nM | 3.98 | SA Ant | – | 39.8 | SA Ant | – | – | equipotent | 55 | 11- to 25 fold | – | 40 | – | –
CCCCCCCC(=O)N[C@@H](Cc1c[nH]cn1)C(=O)N[C@H](Cc1ccc(I)cc1)C(=O)N[C@@H](CCCNC(=N)N)C(=O)N[C@@H](Cc1c[nH]c2ccccc12)C(N)=O [Peptide 6, Octanoyl-His-(pI)DPhe-Arg-Trp-NH2] | 5.8 ± 1.7 | – | −22 | 6.3 ± 2.4 nM | 2.51 | Ant | – | 5.01 | Ant | – | equipotent | – | 30 | – | – | 50 | 50 | ~3
